EC50 data for 34 compounds are collected here from US20160045505A1, “COMPOUNDS AND COMPOSITIONS FOR THE TREATMENT OF PARASITIC DISEASES” (NOVARTIS AG, priority 2013, published 2016).

Where two headings read alike, the source gives them in different places.

Assay [1] relates to L. donovani HU3 strain in mouse peritoneal macrophages. Description: Assay for proliferation of Leishmania parasites in infected mouse peritoneal macrophages (SybrGreen staining, high-content imaging, 5 days). The assay is classed as cell-based, Leishmania donovani. Conditions: Leishmania donovani, Peritoneal macrophage, L. donovani in mouse peritoneal macrophages, read-out: L. donovani Macrophage EC50.

The test system of assay [2] is Leishmania donovani axenic amastigote parasites. As to the kind of experiment: Leishmania donovani axenic amastigote proliferation assay (Cell TiterGlo luminescence, 2 day incubation). In kind it is cell-based. The settings on record: Leishmania donovani, read-out: L. donovani amastigotes EC50.
Assay [3] concerns Trypanosoma cruzi amastigotes (Tulahuen strain expressing Lac-Z) cultured in 3T3 fibroblast cells. Description: microbe, parasite or virus in culture. In kind it is cell-based. Conditions: Trypanosoma cruzi, TULAHUEN, Fibroblast, T. cruzi amastigotes in 3T3 fibroblast cells, read-out: T cruzi EC50.
In assay [4] the test system is Trypanosoma brucei Lister 427 strain, bloodstream form. As to the kind of experiment: Assay for proliferation of kinetoplastid parasite Trypanosoma brucei (Cell Titer Glo, 48 hours). The assay is classed as cell-based. The settings on record: Trypanosoma brucei, T. brucei Lister 427 bloodstream form, read-out: T. brucei EC50. The method, boiled down: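 Bloodstream-form T. brucei Lister 427 in HMI-9 medium was exposed to compound (DMSO vehicle) for 48 hours at 37° C, 5% CO2. Parasite growth was read as ATP by CellTiter-Glo luminescence, with EC50 calculated from percent inhibition.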

The mark [5] stands for this setting: axenic amastigotes, inhibition of proliferation.

Turning to `Cc1nc(C)c(C(=O)Nc2ccc(F)c(-c3cn4cc(-c5ccnn5C(C)C)cnc4n3)c2)o1` [Compound 390], the EC50 (in general, the concentration at which the effect is half-maximal) amounted to 174 nM in assay [1], 53 nM in assay [2] (L. donovani axenic amastigotes), 75 nM in assay [3] and 54 nM in assay [4].

Consider `CN(C)C(=O)Nc1ccc(F)c(-c2cn3cc(F)cnc3n2)c1` [Compound 230], for which the EC50 in assay [1] (inhibition of proliferation) came out at 11700 nM; in assay [2] (setting [5]) it was 2730 nM; in assay [3] (inhibition of proliferation), 1310 nM; in assay [4] (inhibition of proliferation) it was 323 nM.

`CC(C)OC(=O)Nc1ccc(F)c(-c2cn3cc(C(C)C)cnc3n2)c1` [Compound 414]: the EC50 was determined as 1160 nM in assay [1], 217 nM in assay [2] (L. donovani axenic amastigotes), 115 nM in assay [3] and 131 nM in assay [4].

With `Cc1nc(C)c(C(=O)Nc2ccc(F)c(-c3cn4cc(NC(=O)OC(C)C)cnc4n3)c2)s1` [Compound 68], the EC50 was 39200 nM in assay [1] (inhibition of proliferation), 14200 nM in assay [2] (setting [5]), 3600 nM in assay [3] (inhibition of proliferation) and 14200 nM in assay [4] (inhibition of proliferation).

With `Cc1nc(C)c(C(=O)Nc2ccc(F)c(-c3cn4cc(NC5=N[C@@H]6CCC[C@H]6O5)cnc4n3)c2)o1` [Compound 511], the EC50 in assay [1] was determined as 2280 nM; in assay [2] (L. donovani axenic amastigotes), 1550 nM; in assay [3], 3680 nM; in assay [4], 590 nM.

Consider `Cc1nc(C)c(C(=O)Nc2ccc(F)c(-c3cn4cc(-c5c(C)noc5C)cnc4n3)c2)o1` [Compound 366], for which the EC50 in assay [1] (inhibition of proliferation) turned out to be 339 nM; in assay [2] (setting [5]), 849 nM; in assay [3] (inhibition of proliferation), 443 nM; in assay [4] (inhibition of proliferation), 338 nM.

With `COCN(C(=O)OC(C)C)c1cnc2nc(-c3cc(NC(=O)c4oc(C)nc4C)ccc3F)cn2c1` [Compound 554], the EC50 in assay [1] was 1850 nM; in assay [2] (L. donovani axenic amastigotes), 814 nM; in assay [3] it was 1510 nM; in assay [4], 664 nM.

Take `Cc1nc(C)c(C(=O)Nc2ccc(F)c(-c3cn4cc(NC(=O)[C@@H]5[C@@H]6CCC(O6)[C@@H]5N)cnc4n3)c2)o1` [Compound 157]: the EC50 in assay [1] (inhibition of proliferation) was above 50000 nM; in assay [2] (setting [5]) it was above 25000 nM; in assay [3] (inhibition of proliferation), above 20000 nM; in assay [4] (inhibition of proliferation), 31300 nM.

As to `Cc1nc(C)c(C(=O)Nc2ccc(F)c(-c3cn4cc(C#CCCO)cnc4n3)c2)o1` [Compound 543, N-(4-fluoro-3-(6-(4-hydroxybut-1-yn-1-yl)imidazo[1,2-a]pyrimidin-2-yl)phenyl)-2,4-dimethyloxazole-5-carboxamide], the EC50 in assay [1] is 759 nM; in assay [2] (L. donovani axenic amastigotes) it was 212 nM; in assay [3] it was 882 nM; in assay [4], 134 nM.

Consider `Cc1nc(C)c(C(=O)Nc2ccc(F)c(-c3cn4cc(NC(=O)[C@H]5[C@@H](N)[C@@H]6C=C[C@H]5C6)cnc4n3)c2)o1` [Compound 181], for which the EC50 in assay [1] (inhibition of proliferation) was 33100 nM; in assay [2] (setting [5]) it was above 25000 nM; in assay [3] (inhibition of proliferation), above 20000 nM; in assay [4] (inhibition of proliferation) it was 12700 nM.

Turning to `CC(C)OC(=O)Nc1cnc2nc(-c3cc(NC(=O)N4CCCC4c4ccccn4)ccc3Cl)cn2c1` (stereo not shown) [Compound 259], the EC50 in assay [1] (inhibition of proliferation) was 23700 nM; in assay [2] (setting [5]) it was above 22100 nM; in assay [3] (inhibition of proliferation), 10900 nM; in assay [4] (inhibition of proliferation) it was 34600 nM.

With `[2H]C([2H])([2H])N(C(=O)Nc1ccc(F)c(-c2cn3cc(C4CC4)cnc3n2)c1)C([2H])([2H])[2H]` [Compound 606], the EC50 is 3200 nM in assay [1], 545 nM in assay [2] (L. donovani axenic amastigotes), 380 nM in assay [3] and 267 nM in assay [4].

`Cc1nc(C)c(C(=O)Nc2ccc(F)c(-c3cn4cc(NC(=O)C5CCOC(C)(C)C5)cnc4n3)c2)o1` (stereo not shown) [Compound 159]: the EC50 in assay [1] (inhibition of proliferation) was found to be 10100 nM; in assay [2] (setting [5]), 2890 nM; in assay [3] (inhibition of proliferation), 9950 nM; in assay [4] (inhibition of proliferation), 1470 nM.

`Cc1nc(C)c(C(=O)Nc2ccc(F)c(-c3cn4cc(C5=CCN(Cc6ccccc6)CC5)cnc4n3)c2)o1` [Compound 378]: the EC50 in assay [1] amounted to 134 nM; in assay [2] (L. donovani axenic amastigotes) it was 543 nM; in assay [3], 47 nM; in assay [4], 38 nM.

Take `Cc1nc(C)c(C(=O)Nc2ccc(F)c(-c3cn4cc(-c5cn[nH]c5)cnc4n3)c2)o1` [Compound 386]: the EC50 in assay [1] was above 50000 nM; in assay [2] (L. donovani axenic amastigotes), 1500 nM; in assay [3] it was above 20000 nM; in assay [4] it was 1550 nM.

In the case of `O=C(Nc1ccc(F)c(-c2cn3cc(Cl)cnc3n2)c1)N1CC(F)(F)C1` [Compound 235], the EC50 in assay [1] (inhibition of proliferation) was 821 nM; in assay [2] (setting [5]), 215 nM; in assay [3] (inhibition of proliferation), 433 nM; in assay [4] (inhibition of proliferation) it was 165 nM.

Consider `Cc1nc(C)c(C(=O)Nc2ccc(F)c(-c3cn4cc(NC(=O)C5CNCCCO5)cnc4n3)c2)o1` (stereo not shown) [Compound 182], for which the EC50 in assay [1] (inhibition of proliferation) is above 50000 nM; in assay [2] (setting [5]), above 25000 nM; in assay [3] (inhibition of proliferation) it was above 20000 nM; in assay [4] (inhibition of proliferation) it was 10800 nM.

With `Cc1ncoc1C(=O)Nc1ccc(F)c(-c2cn3cc(NC(=O)OC(C)C)cnc3n2)c1` [Compound 76], the EC50 in assay [1] (inhibition of proliferation) amounted to 4220 nM; in assay [2] (setting [5]), 305 nM; in assay [3] (inhibition of proliferation) it was 636 nM; in assay [4] (inhibition of proliferation), 348 nM.

As to `CC(=O)N(C)C1CCN(C(=O)Nc2ccc(Cl)c(-c3cn4cc(NC(=O)OC(C)C)cnc4n3)c2)C1` (stereo not shown) [Compound 276], the EC50 was above 50000 nM in assay [1] (inhibition of proliferation), above 25000 nM in assay [2] (setting [5]), above 20000 nM in assay [3] (inhibition of proliferation) and 8720 nM in assay [4] (inhibition of proliferation).

On to `CC(=O)Nc1ncc(C(=O)Nc2ccc(Cl)c(-c3cn4cc(NC(=O)OC(C)C)cnc4n3)c2)s1` [Compound 50], for which the EC50 in assay [1] (inhibition of proliferation) was above 50000 nM; in assay [2] (setting [5]) it was above 25000 nM; in assay [3] (inhibition of proliferation), above 20000 nM; in assay [4] (inhibition of proliferation), above 50000 nM.

For `Cc1cncc(-c2cnc3nc(-c4cc(NC(=O)c5oc(C)nc5C)ccc4F)cn3c2)c1` [Compound 440], the EC50 in assay [1] was determined as 200 nM; in assay [2] (L. donovani axenic amastigotes), 119 nM; in assay [3], 238 nM; in assay [4], 315 nM.

For `CC(C)OC(=O)Nc1cnc2nc(-c3cc(NC(=O)N(C)c4nccn4C)ccc3Cl)cn2c1` [Compound 256], the EC50 in assay [1] (inhibition of proliferation) was above 50000 nM; in assay [2] (setting [5]), above 25000 nM; in assay [3] (inhibition of proliferation), above 20000 nM; in assay [4] (inhibition of proliferation), 31600 nM.

For the compound `CCN(C)C(=O)Nc1ccc(Cl)c(-c2cn3cc(NC(=O)OC(C)C)cnc3n2)c1` [Compound 250], the EC50 is 839 nM in assay [1] (inhibition of proliferation), 498 nM in assay [2] (setting [5]), 631 nM in assay [3] (inhibition of proliferation) and 112 nM in assay [4] (inhibition of proliferation).

Consider `Cc1nc(C)c(C(=O)Nc2ccc(F)c(-c3cn4cc(OCc5ccccn5)cnc4n3)c2)o1` [Compound 611], for which the EC50 in assay [1] turned out to be 1550 nM; in assay [2] (L. donovani axenic amastigotes), 645 nM; in assay [3], 1130 nM; in assay [4] it was 611 nM.

For `Cc1nc(C)c(C(=O)Nc2ccc(F)c(-c3cn4cc(NC(=O)CN(C)C)cnc4n3)c2)o1` [Compound 186], the EC50 stood at 6220 nM in assay [1] (inhibition of proliferation), 15800 nM in assay [2] (setting [5]), 10200 nM in assay [3] (inhibition of proliferation) and 590 nM in assay [4] (inhibition of proliferation).

As to `Cc1nc(C)c(C(=O)Nc2ccc(F)c(-c3cn4cc(-c5cnccn5)cnc4n3)c2)o1` [Compound 251], the EC50 stood at 85 nM in assay [1] (inhibition of proliferation), 35 nM in assay [2] (setting [5]), 61 nM in assay [3] (inhibition of proliferation) and 45 nM in assay [4] (inhibition of proliferation).

With `CC(C)OC(=O)Nc1cnc2nc(-c3cc(NC(=O)c4cn5cccnc5n4)ccc3Cl)cn2c1` [Compound 49], the EC50 in assay [1] (inhibition of proliferation) was above 50000 nM; in assay [2] (setting [5]) it was above 25000 nM; in assay [3] (inhibition of proliferation) it was above 20000 nM; in assay [4] (inhibition of proliferation), above 50000 nM.

As for `Cc1ccc(-c2cnc3nc(-c4cc(NC(=O)c5oc(C)nc5C)ccc4F)cn3c2)nc1` [Compound 445], the EC50 in assay [1] stood at 688 nM; in assay [2] (L. donovani axenic amastigotes) it was 12 nM; in assay [3], 14 nM; in assay [4], 31 nM.

`Cc1nc(C)c(C(=O)Nc2ccc(F)c(-c3cn4cc(-c5ccc(F)nc5)cnc4n3)c2)o1` [Compound 436]: the EC50 stood at 1720 nM in assay [1], 77 nM in assay [2] (L. donovani axenic amastigotes), 50 nM in assay [3] and 72 nM in assay [4].

Consider `Cc1nc(C)c(C(=O)Nc2ccc(F)c(-c3cn4cc(-c5cncn5C)cnc4n3)c2)o1` [Compound 370], for which the EC50 in assay [1] (inhibition of proliferation) came out at 3610 nM; in assay [2] (setting [5]), 5470 nM; in assay [3] (inhibition of proliferation) it was 7370 nM; in assay [4] (inhibition of proliferation), 386 nM.

For `CCCC(=O)OCN(C(=O)OC(C)C)c1cnc2nc(-c3cc(NC(=O)c4oc(C)nc4C)ccc3F)cn2c1` [Compound 556], the EC50 in assay [1] turned out to be 99 nM; in assay [2] (L. donovani axenic amastigotes), 63 nM; in assay [3], 313 nM; in assay [4], 70 nM.

Turning to `Cc1ccc(-c2cnc3nc(-c4cc(NC(=O)c5oc(C)nc5C)ccc4F)cn3c2)nn1` [Compound 448], the EC50 in assay [1] was determined as 5150 nM; in assay [2] (L. donovani axenic amastigotes) it was 108 nM; in assay [3], 798 nM; in assay [4], 157 nM.

On to `Cc1nc(C)c(C(=O)Nc2ccc(F)c(-c3cn4cc(-c5cnc(C(C)C)cn5)cnc4n3)c2)o1` [Compound 446], for which the EC50 in assay [1] worked out at 146 nM; in assay [2] (L. donovani axenic amastigotes), 33 nM; in assay [3], 122 nM; in assay [4], 161 nM.

Regarding `O=C(Nc1ccc(F)c(-c2cn3cc(-c4ccccn4)cnc3n2)c1)N1CC[C@@H](F)C1` [Compound 407], the EC50 turned out to be 14 nM in assay [1], 9 nM in assay [2] (L. donovani axenic amastigotes), 14 nM in assay [3] and 4 nM in assay [4].
